Inhibition data for three molecules are collected here from publication PMC3726451, “Coumestrol from the national cancer Institute’s natural product library is a novel inhibitor of protein kinase CK2” (BMC Pharmacology & Toxicology, 2013).

One assay has as its target T1, Casein kinase 2 (CK2) (Homo sapiens, UniProt P68400).
T1 construct: gene CSNK2A1
Kind of assay: ADP-Glo kinase assay, single concentration […], duplicates. Format: biochemical. As to conditions: read-out: % inhibition at 10 μM.

Assay [1] has as its target T2, vascular endothelial growth factor receptor 3 (VEGFR3) (Homo sapiens, UniProt P35916).
T2 construct: gene FLT4
Kind of assay: ADP-Glo kinase selectivity panel, single concentration […] with […] ATP. Format: biochemical.

Where only a bound is given, the exact number is not on record here.

T1 sequence (P68400 whole entry): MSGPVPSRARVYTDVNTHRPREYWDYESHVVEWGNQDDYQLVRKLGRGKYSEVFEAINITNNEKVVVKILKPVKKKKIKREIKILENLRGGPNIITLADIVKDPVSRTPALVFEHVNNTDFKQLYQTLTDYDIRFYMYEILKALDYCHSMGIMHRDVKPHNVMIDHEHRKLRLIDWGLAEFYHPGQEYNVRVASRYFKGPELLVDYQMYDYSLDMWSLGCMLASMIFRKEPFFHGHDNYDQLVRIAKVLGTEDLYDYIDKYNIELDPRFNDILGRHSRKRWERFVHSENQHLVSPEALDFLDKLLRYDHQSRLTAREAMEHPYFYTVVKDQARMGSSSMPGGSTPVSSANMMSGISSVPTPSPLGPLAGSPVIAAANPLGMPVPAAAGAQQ
T1 sequence (P67870 2-215 partner): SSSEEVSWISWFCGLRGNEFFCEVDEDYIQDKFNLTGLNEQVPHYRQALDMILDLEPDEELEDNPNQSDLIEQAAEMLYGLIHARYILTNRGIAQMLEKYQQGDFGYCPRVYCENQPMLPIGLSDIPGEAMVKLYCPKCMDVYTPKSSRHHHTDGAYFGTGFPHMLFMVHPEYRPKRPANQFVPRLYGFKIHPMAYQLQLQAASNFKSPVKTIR
T2 sequence (P35916 25-1363): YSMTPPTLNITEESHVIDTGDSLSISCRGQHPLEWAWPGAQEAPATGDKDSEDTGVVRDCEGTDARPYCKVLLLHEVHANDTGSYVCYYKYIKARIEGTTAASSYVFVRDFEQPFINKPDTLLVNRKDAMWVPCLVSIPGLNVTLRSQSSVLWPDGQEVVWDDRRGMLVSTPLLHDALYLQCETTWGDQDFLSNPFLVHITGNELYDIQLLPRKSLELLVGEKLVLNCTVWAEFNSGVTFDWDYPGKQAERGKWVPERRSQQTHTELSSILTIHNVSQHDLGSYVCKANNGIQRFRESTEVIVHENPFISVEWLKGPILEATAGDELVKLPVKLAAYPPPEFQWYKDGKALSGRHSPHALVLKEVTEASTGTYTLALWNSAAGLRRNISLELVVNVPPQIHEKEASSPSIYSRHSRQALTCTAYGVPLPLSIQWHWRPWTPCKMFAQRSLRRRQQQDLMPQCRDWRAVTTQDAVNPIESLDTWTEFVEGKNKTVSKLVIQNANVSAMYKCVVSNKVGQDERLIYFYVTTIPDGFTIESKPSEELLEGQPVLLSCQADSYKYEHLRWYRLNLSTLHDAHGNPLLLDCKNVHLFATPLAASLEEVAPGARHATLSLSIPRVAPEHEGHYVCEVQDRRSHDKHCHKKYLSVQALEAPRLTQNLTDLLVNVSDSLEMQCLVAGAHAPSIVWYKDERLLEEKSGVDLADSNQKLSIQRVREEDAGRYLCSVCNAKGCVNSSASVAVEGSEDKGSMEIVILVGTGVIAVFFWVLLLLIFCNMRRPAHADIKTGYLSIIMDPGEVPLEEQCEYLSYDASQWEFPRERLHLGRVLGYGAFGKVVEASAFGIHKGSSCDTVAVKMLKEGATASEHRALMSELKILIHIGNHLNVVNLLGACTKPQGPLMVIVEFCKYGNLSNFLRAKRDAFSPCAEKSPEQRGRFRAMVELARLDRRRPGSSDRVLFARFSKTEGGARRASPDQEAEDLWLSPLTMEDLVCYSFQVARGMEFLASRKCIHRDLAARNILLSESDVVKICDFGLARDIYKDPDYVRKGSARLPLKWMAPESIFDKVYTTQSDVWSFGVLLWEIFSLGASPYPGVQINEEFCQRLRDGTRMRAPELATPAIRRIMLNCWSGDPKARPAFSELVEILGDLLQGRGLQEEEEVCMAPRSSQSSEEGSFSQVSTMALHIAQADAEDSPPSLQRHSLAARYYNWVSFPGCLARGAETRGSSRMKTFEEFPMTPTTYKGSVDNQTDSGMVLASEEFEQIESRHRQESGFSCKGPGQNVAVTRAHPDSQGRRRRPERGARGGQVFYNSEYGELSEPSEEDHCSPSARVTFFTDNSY

For `COc1cccc2c1cc([N+](=O)[O-])c1c(C(=O)O)cc3c(c12)OCO3` [1-F3, 8-methoxy-6-nitro phenanthro[3,4-d] [1, 3] dioxole-5-carboxylic acid], the inhibition at 10 µM on Casein kinase 2 (CK2) is more than 50%.

Take `COc1cc(/C=C/C(=O)CC(=O)/C=C/c2ccc(O)c(OC)c2)ccc1O` [1-D6, (1E,6E)-1,7-Bis(4-hydroxy-3-methoxyphenyl)-1,6-heptadiene-3,5-dione]: at Casein kinase 2 (CK2), the inhibition at 10 µM is more than 50%.

In turn, `O=c1oc2cc(O)ccc2c2oc3cc(O)ccc3c12` [1-F4, 3,9-Dihydroxy-6-benzofurano [3,2-c]chromenone] returned an inhibition at 10 µM in assay [1] of 59%.
